Data on two molecules can be found in ChEMBL document CHEMBL4364295, “Discovery of a First-in-Class Receptor Interacting Protein 2 (RIP2) Kinase Specific Clinical Candidate, 2-((4-(Benzo[d]thiazol-5-ylamino)-6-(tert-butylsulfonyl)quinazolin-7-yl)oxy)ethyl Dihydrogen Phosphate, for the Treatment of Inflammatory Diseases” (J Med Chem, 2019).

Each structure is given as a SMILES string. The source made the active and inactive calls. The rule behind the calls is not given here.

Series [1] deals with Receptor-interacting serine/threonine-protein kinase 2 (Homo sapiens, UniProt O43353). Description: Inhibition of fluorescent-labelled ligand binding to human RIP2K preincubated for 10 mins followed by fluorescent-labelled ligand addition and measured after 10 mins by fluorescence polarization assay. (Polarisation of emitted light reports the rotation of a fluorescent probe.)
Sequence of Receptor-interacting serine/threonine-protein kinase 2 (O43353 whole entry): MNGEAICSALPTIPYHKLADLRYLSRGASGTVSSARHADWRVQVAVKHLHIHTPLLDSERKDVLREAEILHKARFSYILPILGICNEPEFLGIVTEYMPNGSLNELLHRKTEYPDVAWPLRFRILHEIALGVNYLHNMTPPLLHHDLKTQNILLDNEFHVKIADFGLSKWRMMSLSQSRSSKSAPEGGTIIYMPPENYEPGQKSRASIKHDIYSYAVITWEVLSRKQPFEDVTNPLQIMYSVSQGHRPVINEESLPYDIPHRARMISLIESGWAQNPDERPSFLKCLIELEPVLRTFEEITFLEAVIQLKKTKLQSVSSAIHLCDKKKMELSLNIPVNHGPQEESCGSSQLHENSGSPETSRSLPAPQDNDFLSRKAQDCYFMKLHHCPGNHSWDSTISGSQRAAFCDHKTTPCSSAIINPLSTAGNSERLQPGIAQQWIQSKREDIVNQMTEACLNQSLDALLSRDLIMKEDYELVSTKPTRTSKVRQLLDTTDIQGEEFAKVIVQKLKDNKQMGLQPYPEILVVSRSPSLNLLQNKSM

Series [2] can be described thus: Volume of distribution at steady state in Sprague-Dawley rat at 2 mg/kg, po or 0.5 mg/kg, iv by LC/MS/MS analysis. It is filed as ADME, organism-based. Particulars: in vivo, read-out: Vdss.
Series [3] is described as follows: Drug uptake in po dosed Sprague-Dawley rat systemic circulation by LC/MS/MS analysis. The series is classed as ADME, organism-based. The settings on record: in vivo.
The nature of series [4]: Clearance in rat hepatocytes. It is filed as ADME, cell-based, Hepatocyte.
Series [5] in a line: AUC in Beagle dog at 2 mg/kg, po by LC/MS/MS analysis. It is filed as ADME, organism-based, Canis lupus familiaris. The settings on record: in vivo.
Another series concerns Cricetinae. Nature of the series: Displacement of [125I]2-iodomelatonin from hamster MT3 receptor at 10 uM measured after 60 mins by scintillation counting method. In general terms: Loss of bound radioactivity is the signal in a displacement assay; it reports binding, not function.
The nature of series [6]: Oral bioavailability in Gottingen minipig at 1 mg/kg by LC/MS/MS analysis. The series is classed as ADME, organism-based, Sus scrofa. The settings on record: pig, in vivo.
Series [7] is described as follows: Unbound fraction in dog blood. It is filed as ADME, tissue-based, Canis lupus familiaris.
A short description of series [8]: Unbound fraction in human blood. It is filed as ADME, tissue-based.
Series [9] can be described thus: Volume of distribution at steady state in Gottingen minipig at 1 mg/kg, po or 0.4 mg/kg, iv by LC/MS/MS analysis. It is filed as ADME, organism-based, Sus scrofa. The settings on record: pig, in vivo, read-out: Vdss.
The nature of series [10]: Inhibition of TNFR in human monocytes assessed as reduction in TNFalpha-induced IL8 production. It is filed as cell-based.
For series [11], the target named is Voltage-gated inwardly rectifying potassium channel KCNH2 (Homo sapiens, UniProt Q12809). Description: Inhibition of human ERG (1159 residues) expressed in CHOK1 cells at -80 mV holding potential measured after 5 mins by QPatch electrophysiology method. The series is classed as cell-based. (In patch-clamp work, channel activity is measured electrically.)
Sequence of Voltage-gated inwardly rectifying potassium channel KCNH2 (Q12809 whole entry): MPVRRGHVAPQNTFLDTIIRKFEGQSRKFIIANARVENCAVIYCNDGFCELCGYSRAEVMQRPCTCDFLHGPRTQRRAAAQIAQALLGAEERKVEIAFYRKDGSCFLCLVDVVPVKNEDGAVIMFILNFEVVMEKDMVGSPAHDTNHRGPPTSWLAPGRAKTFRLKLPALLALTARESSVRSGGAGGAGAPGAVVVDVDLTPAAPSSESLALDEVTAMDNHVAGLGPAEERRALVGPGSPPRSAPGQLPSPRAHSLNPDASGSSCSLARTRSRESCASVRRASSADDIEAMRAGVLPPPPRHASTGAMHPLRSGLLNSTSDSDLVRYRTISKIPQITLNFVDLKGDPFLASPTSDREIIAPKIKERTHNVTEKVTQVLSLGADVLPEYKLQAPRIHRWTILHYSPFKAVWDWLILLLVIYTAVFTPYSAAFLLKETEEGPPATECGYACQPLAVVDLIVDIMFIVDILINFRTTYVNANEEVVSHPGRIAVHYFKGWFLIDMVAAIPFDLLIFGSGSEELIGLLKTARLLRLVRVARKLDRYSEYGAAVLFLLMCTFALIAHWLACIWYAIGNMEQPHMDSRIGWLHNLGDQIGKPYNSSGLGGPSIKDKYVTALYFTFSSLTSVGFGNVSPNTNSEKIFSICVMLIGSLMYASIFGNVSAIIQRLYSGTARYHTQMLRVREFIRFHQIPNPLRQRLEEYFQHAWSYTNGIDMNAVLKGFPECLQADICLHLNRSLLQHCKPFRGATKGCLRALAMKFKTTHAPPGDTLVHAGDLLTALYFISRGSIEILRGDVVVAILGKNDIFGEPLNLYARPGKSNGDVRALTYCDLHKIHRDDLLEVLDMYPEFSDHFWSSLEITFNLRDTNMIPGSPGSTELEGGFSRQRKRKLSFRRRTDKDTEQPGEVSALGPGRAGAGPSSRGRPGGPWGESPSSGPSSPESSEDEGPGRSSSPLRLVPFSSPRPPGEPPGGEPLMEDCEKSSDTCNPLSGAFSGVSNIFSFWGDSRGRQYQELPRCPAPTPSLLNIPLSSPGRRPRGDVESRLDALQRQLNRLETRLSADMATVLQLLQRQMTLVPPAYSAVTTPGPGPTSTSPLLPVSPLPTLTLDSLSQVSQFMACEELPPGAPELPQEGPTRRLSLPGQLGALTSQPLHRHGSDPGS
Series [12] is described as follows: Cmax in Sprague-Dawley rat at 2 mg/kg, po by LC/MS/MS analysis. It is filed as ADME, organism-based. Further details: dose 2 mg/kg, route oral. The settings on record: in vivo.
A short description of series [13]: (§1) AUC in Sprague-Dawley rat assessed as 2-((4-(Benzo[d]thiazol-5-ylamino)-6-(tert-butylsulfonyl)quinazolin-7-yl)oxy)ethanol level at 2 mg/kg, po by LC/MS/MS analysis. It is filed as ADME, organism-based. Particulars: in vivo.
Series [14] addresses Vascular endothelial growth factor receptor 3 (Homo sapiens) (UniProt P35916). Description: Inhibition of human VEGFR3 at 1 uM using poly[Glu:Tyr] (4:1) as substrate in presence of [gamma-33P]ATP relative to control.
A short description of series [15]: AUC in Sprague-Dawley rat at 20 mg/kg, po using crystalline sample during 7 day dose ranging study by LC/MS/MS analysis. It is filed as ADME, organism-based. The settings on record: in vivo.
Another series addresses T1, Toll-like receptor 7 (Homo sapiens, UniProt Q9NYK1).
T1 sequence (Q9NYK1 whole entry): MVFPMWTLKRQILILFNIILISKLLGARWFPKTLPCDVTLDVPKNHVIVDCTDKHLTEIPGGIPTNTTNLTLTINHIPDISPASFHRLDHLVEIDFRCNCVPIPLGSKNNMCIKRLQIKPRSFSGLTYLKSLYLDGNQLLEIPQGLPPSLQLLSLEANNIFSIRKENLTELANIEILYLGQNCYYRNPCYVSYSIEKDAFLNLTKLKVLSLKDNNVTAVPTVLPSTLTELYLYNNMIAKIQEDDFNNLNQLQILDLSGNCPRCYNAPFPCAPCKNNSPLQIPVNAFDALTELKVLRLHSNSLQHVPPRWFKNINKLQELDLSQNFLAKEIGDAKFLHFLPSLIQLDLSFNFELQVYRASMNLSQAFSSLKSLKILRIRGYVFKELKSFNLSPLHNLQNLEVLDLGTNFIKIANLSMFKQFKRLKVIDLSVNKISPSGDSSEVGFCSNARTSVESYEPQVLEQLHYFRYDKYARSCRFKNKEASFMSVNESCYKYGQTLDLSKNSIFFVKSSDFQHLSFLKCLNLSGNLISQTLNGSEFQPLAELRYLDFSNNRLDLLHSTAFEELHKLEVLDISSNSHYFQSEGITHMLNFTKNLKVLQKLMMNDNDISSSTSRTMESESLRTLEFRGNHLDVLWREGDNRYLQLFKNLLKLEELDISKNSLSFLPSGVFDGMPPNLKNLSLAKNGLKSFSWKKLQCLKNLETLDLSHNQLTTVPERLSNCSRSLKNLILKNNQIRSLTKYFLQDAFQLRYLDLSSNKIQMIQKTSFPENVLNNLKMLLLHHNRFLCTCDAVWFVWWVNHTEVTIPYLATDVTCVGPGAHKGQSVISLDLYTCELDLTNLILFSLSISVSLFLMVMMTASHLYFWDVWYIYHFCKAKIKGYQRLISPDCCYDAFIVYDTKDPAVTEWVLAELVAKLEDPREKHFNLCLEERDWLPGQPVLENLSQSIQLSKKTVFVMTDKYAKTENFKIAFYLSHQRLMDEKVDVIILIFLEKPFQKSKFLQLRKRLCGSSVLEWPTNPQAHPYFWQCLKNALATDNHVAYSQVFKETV
Nature of the series: Inhibition of TLR7 in human monocytes assessed as reduction in gardiquimod-induced IL8 production. The series is classed as cell-based.

Series [16] can be described thus: Clearance in human hepatocytes. It is filed as ADME, cell-based, Hepatocyte.
Series [17] in a line: Dose normalized AUC in Sprague-Dawley rat at 20 mg/kg, po using crystalline sample during 7 day dose ranging study by LC/MS/MS analysis. Particulars: in vivo, 168 h. It is filed as ADME, organism-based.
The nature of series [18]: Prodrug conversion in human hepatocytes assessed as benzothiazole ring opening at 20 uM measured after 4 hrs. It is filed as ADME, cell-based, Hepatocyte.
The nature of series [19]: Solubility of the compound in FaSSIF measured after 4 hrs using hemi-calcium salt form of compound. The series is classed as physicochemical.
A short description of series [20]: as §1. The series is classed as ADME, organism-based. The settings on record: in vivo. The source holds these as a separate data set.
Series [21] in a line: Prodrug conversion in human hepatocytes assessed as dephosphorylation at 20 uM measured after 4 hrs. It is filed as ADME, cell-based, Hepatocyte.
Series [22] can be described thus: Prodrug conversion in rat hepatocytes assessed as benzothiazole ring opening at 20 uM measured after 4 hrs. It is filed as ADME, cell-based, Hepatocyte.
Series [23] in a line: Drug uptake in Gottingen minipig systemic circulation at 2 mg/kg, po or 1 mg/kg, iv by LC/MS/MS analysis. It is filed as ADME, organism-based, Sus scrofa. The settings on record: pig, in vivo.
The nature of series [24]: Solubility of the compound in FeSSIF. It is filed as physicochemical. The settings on record: simulated gi fluid.
The nature of series [25]: Half life in dog intestinal S9 fraction. The series is classed as ADME, subcellular, Canis lupus familiaris, Intestine.
Series [26] in a line: Prodrug conversion in Sprague-Dawley rat gut assessed as 2-((4-(Benzo[d]thiazol-5-ylamino)-6-(tert-butylsulfonyl)quinazolin-7-yl)oxy)ethanol formation at 2 mg/kg, po or 0.5 mg/kg, iv measured at 15 to 120 mins post dose. It is filed as ADME, organism-based. Particulars: in vivo.
Series [27] in a line: Drug uptake in Sprague-Dawley rat systemic circulation at 2 mg/kg, po or 1.1 mg/kg, iv by LC/MS/MS analysis. The series is classed as ADME, organism-based. Particulars: in vivo.
A short description of series [28]: Prodrug conversion in human hepatocytes assessed as oxidation at 20 uM measured after 4 hrs. It is filed as ADME, cell-based, Hepatocyte.
Series [29] is described as follows: Prodrug conversion in Sprague-Dawley rat stomach assessed as 2-((4-(Benzo[d]thiazol-5-ylamino)-6-(tert-butylsulfonyl)quinazolin-7-yl)oxy)ethanol formation at 2 mg/kg, po or 0.5 mg/kg, iv measured at 15 to 120 mins post dose. The series is classed as ADME, organism-based. The settings on record: in vivo.
Series [30] in a line: Prodrug conversion in human hepatocytes assessed as 2-((4-(Benzo[d]thiazol-5-ylamino)-6-(tert-butylsulfonyl)quinazolin-7-yl)oxy)ethanol formation at 20 uM measured after 4 hrs. The series is classed as ADME, cell-based, Hepatocyte.
Series [31] is described as follows: Half life in rat blood. It is filed as ADME, tissue-based.

The term IC50 denotes the midpoint of a concentration-inhibition curve. A word on the AUC: it is the area under the concentration-time curve, a measure of exposure. By inhibition is commonly meant how much of the control response was suppressed. The fraction unbound is free concentration divided by total concentration. The Cmax is the highest concentration seen after dosing. The solubility is the dissolved amount per volume that the medium holds. For orientation: half-life means the time in which the quantity being followed falls by half.

Sequence of Vascular endothelial growth factor receptor 3 (Homo sapiens) (P35916 whole entry): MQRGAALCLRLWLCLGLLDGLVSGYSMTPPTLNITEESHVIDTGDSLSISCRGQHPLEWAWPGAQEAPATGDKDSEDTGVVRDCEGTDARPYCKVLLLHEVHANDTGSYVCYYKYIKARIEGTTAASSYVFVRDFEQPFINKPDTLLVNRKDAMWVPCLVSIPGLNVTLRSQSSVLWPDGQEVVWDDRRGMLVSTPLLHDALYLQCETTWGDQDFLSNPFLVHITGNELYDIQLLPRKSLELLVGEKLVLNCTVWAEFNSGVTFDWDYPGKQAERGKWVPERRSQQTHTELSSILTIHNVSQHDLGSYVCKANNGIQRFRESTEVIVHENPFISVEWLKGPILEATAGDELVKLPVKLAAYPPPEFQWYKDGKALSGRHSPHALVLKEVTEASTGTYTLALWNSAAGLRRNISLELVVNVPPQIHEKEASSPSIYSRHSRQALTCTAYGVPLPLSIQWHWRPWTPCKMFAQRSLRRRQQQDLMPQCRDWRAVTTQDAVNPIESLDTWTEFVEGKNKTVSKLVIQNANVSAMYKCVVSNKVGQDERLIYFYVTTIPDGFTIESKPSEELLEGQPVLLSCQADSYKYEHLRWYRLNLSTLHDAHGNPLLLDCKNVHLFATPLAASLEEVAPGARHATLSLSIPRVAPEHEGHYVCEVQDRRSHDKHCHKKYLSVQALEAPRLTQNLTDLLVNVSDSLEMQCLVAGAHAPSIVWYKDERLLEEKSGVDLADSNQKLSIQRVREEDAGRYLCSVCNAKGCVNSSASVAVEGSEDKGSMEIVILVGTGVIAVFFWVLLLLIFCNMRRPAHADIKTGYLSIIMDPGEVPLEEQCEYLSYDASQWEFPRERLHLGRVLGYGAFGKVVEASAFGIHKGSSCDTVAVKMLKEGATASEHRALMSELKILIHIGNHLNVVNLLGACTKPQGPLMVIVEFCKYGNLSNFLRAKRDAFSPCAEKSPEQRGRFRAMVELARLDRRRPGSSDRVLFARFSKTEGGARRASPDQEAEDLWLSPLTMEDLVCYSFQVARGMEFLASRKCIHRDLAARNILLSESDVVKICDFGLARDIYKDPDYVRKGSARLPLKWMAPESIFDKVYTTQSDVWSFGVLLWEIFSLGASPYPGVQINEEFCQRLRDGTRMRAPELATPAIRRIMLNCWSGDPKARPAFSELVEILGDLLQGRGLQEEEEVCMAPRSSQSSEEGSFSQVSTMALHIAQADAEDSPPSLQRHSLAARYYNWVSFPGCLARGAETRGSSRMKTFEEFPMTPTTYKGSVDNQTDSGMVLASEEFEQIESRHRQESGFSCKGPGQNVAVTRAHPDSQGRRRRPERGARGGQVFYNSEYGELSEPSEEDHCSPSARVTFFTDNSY

As for `CC(C)(C)S(=O)(=O)c1cc2c(Nc3ccc4scnc4c3)ncnc2cc1OCCO`, the half-maximal inhibitory concentration (IC50) is 0.005 µM in [1], above 10 µM in [10], above 30 µM in [11] and above 10 µM at Toll-like receptor 7. The Vd in [2] came to 4.1 L/kg; in series [9], 1.8 L/kg. Also, the Drug uptake result in series [3] is on record as “Not Active”. Further, the CLH in [4] and in [16] was below 0.48 mL/min/g each time. Moreover, the AUC in [5] amounted to 1800 ng·h/mL; in series [13], 460 ng·h/mL. In the series with Cricetinae, the inhibition entry was “Active”. In addition, in [6], the F was 26%. Further, the free fraction (fraction unbound) amounted to 0.089 in series [7] and 0.069 in [8]. Also, the peak level in series [12] (Cmax) was 120 ng/mL. Besides, the inhibition in series [14] is above 90%. For the same molecule, the area under the curve (AUC) at 168 h in series [15] was 8800 ng·h/mL. Besides, the AUC/dose in series [17] came to 0.44 kg·h/L.

As for `CC(C)(C)S(=O)(=O)c1cc2c(Nc3ccc4scnc4c3)ncnc2cc1OCCOP(=O)(O)O.[CaH2]`, the Drug metabolism result in series [18], in [21], in series [22], in [26], in series [28] and in series [29] was “Metabolite_Detected” each time. In addition, the Drug metabolism entry in [30] was “Metabolite_Detected”. Besides, the solubility at 4 h in series [19] is 130 µg/mL. For the same molecule, the AUC in series [20] came out at 560 ng·h/mL; in series [13], 580 ng·h/mL. The Drug uptake result in series [3], in series [23] and in series [27] was “Not Active” throughout. Further, the solubility result in series [24] is given as “Soluble”. Moreover, the results for the half-life in [25] and in series [31] were 8 min and 35 min, respectively. This molecule also returned an IC50 in series [11] above 30 µM.
